The record followed here is the METLIN SMRT retention time set (Domingo-Almenara et al. 2019).

Molecules are shown by their SMILES.

The series in a line: gradient 5% acetonitrile 3 min, to 50% in 2 min, to 85% in 15 min, held 3 min, 100 µL/min. Conditions: column: Zorbax Extend-C18 2.1 x 50 mm; eluents: water / acetonitrile, 0.1% formic acid. Summed up: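 Over 3 months, pure standards in mixtures of ~100 molecules were run by HPLC coupled to a quadrupole time-of-flight mass spectrometer in positive and negative ionization mode. The column was a Zorbax Extend-C18 (2.1 × 50 mm, 1.8 μm) at 100 μL/min, eluted with water and acetonitrile each holding 0.1% formic acid, with 40 μL dead and 900 μL dwell volumes. Retention time was determined from adduct peaks chosen by software and checked manually.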
`COc1ccc(NC(=O)c2c(C)oc3nc(C)nc(N4CCOCC4)c23)cc1` registered an RP-LC retention time of 706 s.
`O=C(CCNc1c(-c2cccc(F)c2)nc2cnccn12)N1CCCC1` displayed an RP-LC retention time of 670 s.
Under `Cc1cc(C)cc(NC(=O)C2CCN(C(=O)c3ncn4c3COC(c3ccccc3)C4)CC2)c1` (centres undefined) stands 856 s; under `O=C(NCCCN1CCCCCC1)C1CCCN(c2nc3cccnc3s2)C1` (centres undefined), 595 s; under `CC(=O)Nc1nsc(N2CCC(C(=O)N3CCN(c4ccccc4)CC3)CC2)n1`, 659 s.
The figure for `CC(NC(=O)c1ccc2nc(-c3ccc(Cl)cc3)cn2c1)c1ccccn1` (centres undefined) is 635 s; for `O=C(Cn1c(=O)cc(-c2nc(C3CC3)no2)c2ccccc21)NCc1cccs1` it is 882 s.
The figure for `CCCn1ncc(N2CCC(C(=O)Nc3ccc(OC)c(OC)c3)CC2)cc1=O` is 693 s; for `CCOC(=O)c1[nH]c(C)c(CCC(=O)N2CCC(C(=O)NCCC(C)C)CC2)c1C` it is 798 s.
In turn, `CCCOc1ccc(CNC(=O)c2nc(N3CCSCC3)c3cn(C)nc3n2)cc1` yielded an RP-LC retention time of 798 s.
In the case of `COc1cccc(NC(=O)Cn2nc3nc(N4CCCC(C)C4)ccn3c2=O)c1` (centres undefined), the RP-LC retention time came to 768 s.
The figure for `CC1=C(C(=O)OCCCc2ccccc2)C(c2cccs2)NC(=O)N1` (centres undefined) is 882 s; for `O=S(=O)(c1cc(-c2nnc(C3CC3)o2)co1)N1CCCCC1` it is 839 s; for `O=C(NCc1ccc(F)cc1)N1CCC(Nc2cccnc2)C1` (centres undefined) it is 591 s.
Under `CCc1cc(C(=O)Nc2ccc(OC)c(Cl)c2)nc2ccnn12` stands 1040 s.
The figure for `O=C(CC1CCCCC1)NC(Cc1ccccc1)C(=O)N1CCN(c2ccccn2)CC1` (centres undefined) is 695 s.
For the compound `Cc1ccc(CN2CCN(CC(C)C(=O)NCc3cc(F)ccc3F)C(=O)C2=O)cc1` (centres undefined), the RP-LC retention time worked out at 765 s.
The figure for `CC1CCN(S(=O)(=O)c2cc(C(=O)Nc3ccc(F)c(Cl)c3)n(C)c2)CC1` is 1170 s; for `O=C(Nc1nc(-c2ccc3ccccc3c2)cs1)c1ccc(Cl)cc1Cl` it is 1220 s.
The figure for `Cn1nc2ccc(S(=O)(=O)N3CCSCC3)cn2c1=O` is 687 s; for `CCN1C(=O)COc2ccc(-c3csc(NC(=O)c4cccc(Br)c4)n3)cc21` it is 1100 s.
Under `COc1ccc(C(=O)N2c3nc(-c4ccccc4)nn3C3(CCCCC3)[C@@H]3CCCC[C@@H]32)cc1OC` stands 1420 s; under `COc1ccccc1C1(CNC(=O)c2ccco2)CCOCC1`, 709 s.
`O=C(NCc1ccc2c(c1)OCO2)C1CCCN(c2cnc3ccccc3n2)C1` (centres undefined) showed an RP-LC retention time of 736 s.
The figure for `Cc1[nH]c(C(=O)N2CCCC(C(=O)NC(C)C)C2)c(C)c1C(=O)OC(C)C` (centres undefined) is 770 s; for `Cn1nc(-c2nnc(-c3ccc(F)cc3)o2)c2c1CCN(C(=O)Nc1ccccc1)C2` it is 833 s; for `COc1ccc(NC(=O)C2CN(S(=O)(=O)c3cccnc3)CC23CCCCC3)cc1F` (centres undefined) it is 900 s.
The figure for `COc1ccccc1C(CNC(=O)c1cc(=O)c2ccc(C)c(C)c2o1)N(C)C` (centres undefined) is 639 s; for `CCN1CCN(CCCNC(=O)C2CCCN(c3ncnc4onc(C)c34)C2)CC1` (centres undefined) it is 557 s; for `CCOC(=O)CNC(=O)N1CCN(Cc2nc3cccnc3n2-c2ccc(CC)cc2)CC1` it is 654 s.
The figure for `O=C(Nc1ccc2cn[nH]c2c1)C1CN(c2nc3ccccc3s2)C1` is 630 s.
In turn, `CCOC(=O)c1nnc2c(-c3ccccc3)cnn2c1C` returned an RP-LC retention time of 961 s.
The figure for `O=C(Nc1ccc(F)cc1)Nc1cccn2ncnc12` is 763 s; for `COCc1noc([C@@H]2CC(F)(F)CN2S(=O)(=O)c2ccccc2)n1` it is 850 s.
In the case of `COc1ccc(-c2nnc(COc3ccc(NC(=O)CSc4ccncc4)cc3)o2)cc1`, the RP-LC retention time came out at 650 s.
Under `COc1cc(NC(=O)c2cnc(-c3ccccc3)nc2-c2ccncc2)cc(OC)c1` stands 879 s; under `COc1ccc(-c2cn3c(CC(=O)N(Cc4cccs4)C4CCCC4)csc3n2)cc1OC`, 875 s.
The figure for `O=C(c1ccn2c(-c3cccc(Cl)c3)nnc2c1)N1CCN(c2ccccn2)CC1` is 608 s.
Under `Cc1nc(C(=O)Nc2ccc(F)cc2)c(C)o1` stands 848 s.
On to `CCn1c(=O)c(C(=O)NCc2cc(F)ccc2F)nc2cccnc21`, for which the RP-LC retention time was 802 s.
For the compound `Cc1ccc(NC(=O)Cn2nc(N(C)C)c3ccccc3c2=O)c(Br)c1`, the RP-LC retention time is 1010 s.
The compound `O=C(Cn1cccc(-c2nc(-c3ccc(F)cc3)no2)c1=O)N1CCN(c2ccc(F)cc2)CC1` yielded an RP-LC retention time of 898 s.
Under `Cc1cc(=O)c(OCc2ccccc2F)cn1CC(=O)NCc1ccccc1Cl` stands 632 s; under `Cc1ccc(S(=O)(=O)Cc2noc(-c3ccc(Br)cc3)n2)cc1`, 1030 s; under `Cc1nc(C)n(CC(=O)Nc2ccc(F)cc2)c(=O)c1C`, 630 s.
`Cc1ccc(C(=O)N2CCN(c3ccc(-c4noc(C5CC5)n4)cc3)CC2)s1` gave an RP-LC retention time of 1010 s.
As to `CC(C)(C)NC(=O)CSc1nc(-c2cccs2)cc(C(F)(F)F)c1C#N`, the RP-LC retention time came out at 991 s.
The figure for `CCOCCCNC(=O)c1nc(Nc2ccc(CC)cc2)c2ccccc2n1` is 813 s.
As for `COc1ccc(NC(=O)/C=C/c2ccc(Cl)cc2)cc1`, the RP-LC retention time is 1090 s.
Under `Cc1ccc(Cl)c(NS(=O)(=O)c2cc3c(s2)CCN(C(=O)C2CC2)C3)c1` stands 901 s; under `CCN1C(=O)c2cccnc2Sc2cc(NC(=O)C3CC3)ccc21`, 685 s.
Under `CC(=O)N1c2ccc(S(=O)(=O)N3CCCCC3)cc2CC1C(=O)NCCc1ccc(C)cc1` (centres undefined) stands 941 s; under `O=C(Cn1ncc2c(N3CCN(c4ccccn4)CC3)ncnc21)Nc1ccc(F)c(Cl)c1`, 650 s.
`COc1ccc(C2Cn3nnc(C(=O)N4CCN(C(=O)c5cc(F)ccc5F)CC4)c3CO2)cc1` (centres undefined): the RP-LC retention time is 872 s.
Regarding `CCNC(=O)c1n[nH]c2c1CCCC2`, the RP-LC retention time was 641 s.
The figure for `Nc1nc2ccc(Cl)cc2n2c(-c3ccccc3)nnc12` is 867 s; for `CCc1nc(CN2C(=O)COc3cc(S(=O)(=O)N4CCN(c5ncccn5)CC4)c(C)cc32)no1` it is 871 s.
For `CCN(CC)C(=O)Cn1c(=O)c2cnc(-c3ccccc3)nc2n(C)c1=O`, the RP-LC retention time was 854 s.
Under `CCn1nccc1-c1cccc(-c2noc(CNS(=O)(=O)c3ccc(F)cc3)n2)c1` stands 931 s.
